# Paper PMC10033419, “Blocking NS3–NS4B interaction inhibits dengue virus in non-human primates” (Nature, 2023)
# Several values for one entry are separate records, joined by “and”; a condition that tells them apart may be missing. Equal values may be shown once. Read-outs that look alike come from different tables or passages of the source.
# Key:
# DENV-2/16681/eGFP [1] = assay: microbe, parasite or virus in culture; type: cell-based; settings: Dengue virus
# INF-A PR8/1934 = assay: microbe, parasite or virus in culture; type: cell-based; settings: Influenza A virus, PR8, MDCK
# INF-B Singapore = assay: microbe, parasite or virus in culture; type: cell-based; settings: Influenza B virus, MDCK
# DENV-2/16681/eGFP [2] = assay: microbe, parasite or virus in culture; type: cell-based; settings: Dengue virus, DENV2, Vero
# JEV CNS769-Laos 2009 = assay: microbe, parasite or virus in culture; type: cell-based; settings: Japanese encephalitis virus, Vero C1008
# [3] = rhesus monkey, in vivo
# DENV-2 RL strain = assay: In vivo kinetics study, low viral inoculum (10^2 PFU); settings: for In vivo kinetics, Mean of Log10: group mean; for In vivo kinetics, Copies/ml / In vivo kinetics, Log10 of Copies/ml: individual mice
compound,measurement,setting,value
COc1cc(N[C@H](C(=O)c2c[nH]c3ccc(OC(F)(F)F)cc23)c2ccc(Cl)cc2OC)cc(S(C)(=O)=O)c1 [JNJ-1802],EC50,"DENV-2/16681/eGFP [1]; DENV2, THP-1, THP-1/DC-SIGN, read-out: EC50",0.173 ± 0.043 nM
same,EC90,"DENV-2/16681/eGFP [1]; DENV2, THP-1, THP-1/DC-SIGN, read-out: EC90",0.283 ± 0.056 nM
same,EC50,"DENV-2/16681/eGFP [1]; DENV2, THP-1, read-out: EC50, individual data",0.2 nM
same,EC90,"DENV-2/16681/eGFP [1]; DENV2, THP-1, read-out: EC90, individual data",0.25 nM
same,EC50,INF-A PR8/1934,> 2600 nM
same,EC50,"INF-A PR8/1934; read-out: EC50, Mean",> 25000 nM
same,EC90,"INF-A PR8/1934; read-out: EC90, Mean",> 25000 nM
same,EC50,INF-B Singapore,> 2600 nM
same,EC50,"INF-B Singapore; read-out: EC50, Mean",> 25000 nM
same,EC90,"INF-B Singapore; read-out: EC90, Mean",> 25000 nM
same,EC50,"DENV-2/16681/eGFP [2]; Vero with 50% HS, read-out: EC50, protein-binding-adjusted",1.4 nM
same,EC90,"DENV-2/16681/eGFP [2]; Vero with 50% HS, read-out: EC90, protein-binding-adjusted",4.8 ± 1.4 nM
same,EC50,"DENV-2/16681/eGFP [2]; Vero, mean ± s.d., read-out: EC50",0.059 ± 0.03 nM
same,EC90,"DENV-2/16681/eGFP [2]; Vero, read-out: EC90",0.161 ± 0.083 nM
same,EC50,"DENV-2/16681/eGFP [2]; two DENV-2 laboratory strains in Vero, Huh-7, C6/36, THP-1/DC-SIGN, read-out: mean EC50, range",0.059 to 1.24 nM
same,EC50,JEV CNS769-Laos 2009,590 nM
same,haematological analysis,[3],did not show any indication for a treatment-related effect
same,viral load vs vehicle,DENV-2 RL strain; 0.2 mg per kg per day b.i.d.,No significant reduction in viral load
same,"In vivo kinetics, Mean of Log10","DENV-2 RL strain; 0.2 mg/kg/d, day 1 p.i.",2.59 Log10
same,"In vivo kinetics, Copies/ml","DENV-2 RL strain; 0.2 mg/kg/d, day 1 p.i.",3.93E+02 Copies/ml
same,"In vivo kinetics, Log10 of Copies/ml","DENV-2 RL strain; 0.2 mg/kg/d, day 1 p.i.",2.5940 Log10
same,"In vivo kinetics, Copies/ml","DENV-2 RL strain; 0.2 mg/kg/d, day 2 p.i.",3.93E+02 Copies/ml and 5.27E+03 Copies/ml
same,"In vivo kinetics, Log10 of Copies/ml","DENV-2 RL strain; 0.2 mg/kg/d, day 2 p.i.",2.5940 Log10 and 3.7220 Log10
same,"In vivo kinetics, Mean of Log10","DENV-2 RL strain; 0.2 mg/kg/d, day 3 p.i.",3.28 Log10
same,"In vivo kinetics, Copies/ml","DENV-2 RL strain; 0.2 mg/kg/d, day 3 p.i.",7.26E+03 Copies/ml and 3.93E+02 Copies/ml and 6.17E+04 Copies/ml
same,"In vivo kinetics, Log10 of Copies/ml","DENV-2 RL strain; 0.2 mg/kg/d, day 3 p.i.",3.8609 Log10 and 2.5940 Log10 and 3.9537 Log10 and 4.7902 Log10
same,"In vivo kinetics, Mean of Log10","DENV-2 RL strain; 0.2 mg/kg/d, day 4 p.i.",3.19 Log10
same,"In vivo kinetics, Copies/ml","DENV-2 RL strain; 0.2 mg/kg/d, day 4 p.i.",3.93E+02 Copies/ml and 1.02E+04 Copies/ml and 4.96E+03 Copies/ml and 2.86E+03 Copies/ml and 9.30E+03 Copies/ml
same,"In vivo kinetics, Log10 of Copies/ml","DENV-2 RL strain; 0.2 mg/kg/d, day 4 p.i.",2.5940 Log10 and 4.0085 Log10 and 3.6952 Log10 and 3.4564 Log10 and 3.9686 Log10
same,"In vivo kinetics, Mean of Log10","DENV-2 RL strain; 0.2 mg/kg/d, day 5 p.i.",5.08 Log10
same,"In vivo kinetics, Copies/ml","DENV-2 RL strain; 0.2 mg/kg/d, day 5 p.i.",8.17E+04 Copies/ml and 5.79E+05 Copies/ml and 1.02E+05 Copies/ml
same,"In vivo kinetics, Log10 of Copies/ml","DENV-2 RL strain; 0.2 mg/kg/d, day 5 p.i.",4.9120 Log10 and 5.7623 Log10 and 4.6527 Log10 and 5.0605 Log10 and 5.0084 Log10
same,"In vivo kinetics, Mean of Log10","DENV-2 RL strain; 2 mg/kg/d, day 1 p.i.",2.59 Log10
same,"In vivo kinetics, Copies/ml","DENV-2 RL strain; 2 mg/kg/d, day 1 p.i.",3.93E+02 Copies/ml
same,"In vivo kinetics, Log10 of Copies/ml","DENV-2 RL strain; 2 mg/kg/d, day 1 p.i.",2.5940 Log10
same,"In vivo kinetics, Mean of Log10","DENV-2 RL strain; 2 mg/kg/d, day 2 p.i.",2.59 Log10
same,"In vivo kinetics, Copies/ml","DENV-2 RL strain; 2 mg/kg/d, day 2 p.i.",3.93E+02 Copies/ml
same,"In vivo kinetics, Log10 of Copies/ml","DENV-2 RL strain; 2 mg/kg/d, day 2 p.i.",2.5940 Log10
same,"In vivo kinetics, Mean of Log10","DENV-2 RL strain; 2 mg/kg/d, day 3 p.i.",2.77 Log10
same,"In vivo kinetics, Copies/ml","DENV-2 RL strain; 2 mg/kg/d, day 3 p.i.",3.93E+02 Copies/ml and 6.33E+03 Copies/ml
same,"In vivo kinetics, Log10 of Copies/ml","DENV-2 RL strain; 2 mg/kg/d, day 3 p.i.",2.5940 Log10 and 3.8013 Log10
same,"In vivo kinetics, Mean of Log10","DENV-2 RL strain; 2 mg/kg/d, day 4 p.i.",2.59 Log10
same,"In vivo kinetics, Copies/ml","DENV-2 RL strain; 2 mg/kg/d, day 4 p.i.",3.93E+02 Copies/ml
same,"In vivo kinetics, Log10 of Copies/ml","DENV-2 RL strain; 2 mg/kg/d, day 4 p.i.",2.5940 Log10
same,"In vivo kinetics, Mean of Log10","DENV-2 RL strain; 2 mg/kg/d, day 5 p.i.",2.59 Log10
same,"In vivo kinetics, Copies/ml","DENV-2 RL strain; 2 mg/kg/d, day 5 p.i.",3.93E+02 Copies/ml
same,"In vivo kinetics, Log10 of Copies/ml","DENV-2 RL strain; 2 mg/kg/d, day 5 p.i.",2.5940 Log10
same,"In vivo kinetics, Mean of Log10","DENV-2 RL strain; 20 mg/kg/d, day 1 p.i.",2.59 Log10
same,"In vivo kinetics, Copies/ml","DENV-2 RL strain; 20 mg/kg/d, day 1 p.i.",3.93E+02 Copies/ml
same,"In vivo kinetics, Log10 of Copies/ml","DENV-2 RL strain; 20 mg/kg/d, day 1 p.i.",2.5940 Log10
same,"In vivo kinetics, Mean of Log10","DENV-2 RL strain; 20 mg/kg/d, day 2 p.i.",2.59 Log10
same,"In vivo kinetics, Copies/ml","DENV-2 RL strain; 20 mg/kg/d, day 2 p.i.",3.93E+02 Copies/ml
same,"In vivo kinetics, Log10 of Copies/ml","DENV-2 RL strain; 20 mg/kg/d, day 2 p.i.",2.5940 Log10
same,"In vivo kinetics, Mean of Log10","DENV-2 RL strain; 20 mg/kg/d, day 3 p.i.",2.75 Log10
same,"In vivo kinetics, Copies/ml","DENV-2 RL strain; 20 mg/kg/d, day 3 p.i.",3.93E+02 Copies/ml and 6.76E+03 Copies/ml
same,"In vivo kinetics, Log10 of Copies/ml","DENV-2 RL strain; 20 mg/kg/d, day 3 p.i.",2.5940 Log10 and 3.8298 Log10
same,"In vivo kinetics, Mean of Log10","DENV-2 RL strain; 20 mg/kg/d, day 4 p.i.",2.59 Log10
